Data as given in paper PMC7872314, “Modeling Bioavailable Concentrations in Zebrafish Cell Lines and Embryos Increases the Correlation of Toxicity Potencies across Test Systems” (Environmental Science & Technology, 2020).
Where two headings read alike, the source gives them in different places.

Key:
[1] = test system: ZF4 (fibroblasts) cell line; test: MTS assay (MTS/BCA multiplex), NAD(P)H metabolism; assay type: cell-based, zebrafish (Danio rerio); conditions: Danio rerio, Fibroblast
[2] = test system: ZFL (hepatocytes) cell line; test: cells; assay type: cell-based, zebrafish (Danio rerio); conditions: Danio rerio, Hepatocyte
[3] = test system: ZF4 (fibroblasts) cell line; test: BCA assay (MTS/BCA multiplex), protein amount; assay type: cell-based, zebrafish (Danio rerio); conditions: Danio rerio, Fibroblast
[4] = test system: ZFL (hepatocytes) cell line; test: cells; assay type: cell-based, zebrafish (Danio rerio); conditions: Danio rerio, Hepatocyte; remark: listed apart in the source
[5] = test system: ZF4 (fibroblasts) cell line; test: ATP assay (ATP/LDH multiplex), ATP metabolism; assay type: cell-based, zebrafish (Danio rerio); conditions: Danio rerio, Fibroblast
[6] = test system: ZFL (hepatocytes) cell line; test: cells; assay type: cell-based, zebrafish (Danio rerio); conditions: Danio rerio, Hepatocyte; remark: listed apart in the source
[7] = test system: ZF4 (fibroblasts) cell line; test: alamarBlue (AB) endpoint of AB/CFDA/NR multiplex, cellular respiration; assay type: cell-based, zebrafish (Danio rerio); conditions: Danio rerio, Fibroblast
[8] = test system: ZFL (hepatocytes) cell line; test: cells; assay type: cell-based, zebrafish (Danio rerio); conditions: Danio rerio, Hepatocyte; remark: listed apart in the source
[9] = test system: ZF4 (fibroblasts) cell line; test: CFDA endpoint of AB/CFDA/NR multiplex, membrane stability; assay type: cell-based, zebrafish (Danio rerio); conditions: Danio rerio, Fibroblast
[10] = test system: ZFL (hepatocytes) cell line; test: cells; assay type: cell-based, zebrafish (Danio rerio); conditions: Danio rerio, Hepatocyte; remark: listed apart in the source
[11] = test system: ZF4 (fibroblasts) cell line; test: Neutral red, absorbance (NRa), AB/CFDA/NR multiplex, lysosome stability; assay type: cell-based, zebrafish (Danio rerio); conditions: Danio rerio, Fibroblast
[12] = test system: ZFL (hepatocytes) cell line; test: cells; assay type: cell-based, zebrafish (Danio rerio); conditions: Danio rerio, Hepatocyte; remark: listed apart in the source
[13] = test system: ZF4 (fibroblasts) cell line; test: Neutral red, fluorescence (NRf), AB/CFDA/NR multiplex, lysosome stability; assay type: cell-based, zebrafish (Danio rerio); conditions: Danio rerio, Fibroblast
[14] = test system: ZFL (hepatocytes) cell line; test: cells; assay type: cell-based, zebrafish (Danio rerio); conditions: Danio rerio, Hepatocyte; remark: listed apart in the source
zebrafish embryos [15] = test: animal or person; assay type: in vivo, zebrafish (Danio rerio); conditions: for EC50: Danio rerio
ZF4 and ZFL cell lines = test: Cytotoxicity assays, all endpoints, both cell lines (mean/range); assay type: cell-based, zebrafish (Danio rerio); conditions: 48 h, mean of all cytotoxicity endpoints (without LDH) in ZF4 and ZFL
[16] = test system: zebrafish cell lines vs zebrafish embryo; test: Potency ratios IC50;x/EC50;x (cytotoxicity assays vs mFET); design: species or system zebrafish (Danio rerio)
zebrafish embryos [17] = test system: zebrafish embryos; design: method as in earlier work; conditions: nominal, cited from earlier work
[18] = test system: diverse mammalian cell assay results; design: method as in https://comptox.epa.gov/dashboard/; conditions: COMPTOX; ref https://comptox.epa.gov/dashboard/; read-out: median AC50; cited from earlier work
[19] = ref Comptox, PubChem or DrugBank; cited from earlier work

COC(=O)Nc1nc2ccc(Sc3ccccc3)cc2[nH]1 [Fenbendazole, fenbendazole]
IC50 ([1]; MTS - ZF4, log10 of IC50, read-out: LogIC50 (converted)): 5.84 µM
IC50 ([1]; MTS - ZF4, read-out: IC50): 5.84 µM
IC50 ([1]; ZF4, 48 h exposure, nominal, log10, read-out: logIC50 (log10 IC50;nom) MTS (converted)): 5.89 µM
IC50 ([1]; ZF4, 48 h exposure, nominal, read-out: IC50;nom MTS): 5.84 µM
IC50 ([2]; MTS - ZFL, log10 of IC50, read-out: LogIC50 (converted)): 0.166 µM
IC50 ([2]; MTS - ZFL, read-out: IC50): 0.166 µM
IC50 ([2]; ZFL, 48 h exposure, nominal, log10, read-out: logIC50 (log10 IC50;nom) MTS (converted)): 0.166 µM
IC50 ([2]; ZFL, 48 h exposure, nominal, read-out: IC50;nom MTS): 0.166 µM
IC50 ([3]; BCA - ZF4, log10 of IC50, read-out: LogIC50 (converted)): 1.15 µM
IC50 ([3]; BCA - ZF4, read-out: IC50): 1.15 µM
IC50 ([3]; ZF4, 48 h exposure, nominal, log10, read-out: logIC50 (log10 IC50;nom) BCA (converted)): 1.15 µM
IC50 ([3]; ZF4, 48 h exposure, nominal, read-out: IC50;nom BCA): 1.15 µM
IC50 ([4]; BCA - ZFL, log10 of IC50, read-out: LogIC50 (converted)): 0.125 µM
IC50 ([4]; BCA - ZFL, read-out: IC50): 0.125 µM
IC50 ([4]; ZFL, 48 h exposure, nominal, log10, read-out: logIC50 (log10 IC50;nom) BCA (converted)): 0.126 µM
IC50 ([4]; ZFL, 48 h exposure, nominal, read-out: IC50;nom BCA): 0.125 µM
IC50 ([5]; ATP - ZF4, log10 of IC50, read-out: LogIC50 (converted)): 7.49 µM
IC50 ([5]; ATP - ZF4, read-out: IC50): 7.49 µM
IC50 ([5]; ZF4, 48 h exposure, nominal, log10, read-out: logIC50 (log10 IC50;nom) ATP (converted)): 7.41 µM
IC50 ([5]; ZF4, 48 h exposure, nominal, read-out: IC50;nom ATP): 7.49 µM
IC50 ([6]; ATP - ZFL, log10 of IC50, read-out: LogIC50 (converted)): 9.85 µM
IC50 ([6]; ATP - ZFL, read-out: IC50): 9.85 µM
IC50 ([6]; ZFL, 48 h exposure, nominal, log10, read-out: logIC50 (log10 IC50;nom) ATP (converted)): 9.77 µM
IC50 ([6]; ZFL, 48 h exposure, nominal, read-out: IC50;nom ATP): 9.85 µM
IC50 ([7]; AB - ZF4, log10 of IC50, read-out: LogIC50 (converted)): 3.57 µM
IC50 ([7]; AB - ZF4, read-out: IC50): 3.57 µM
IC50 ([7]; ZF4, 48 h exposure, nominal, log10, read-out: logIC50 (log10 IC50;nom) AB (converted)): 3.55 µM
IC50 ([7]; ZF4, 48 h exposure, nominal, read-out: IC50;nom AB): 3.57 µM
IC50 ([8]; AB - ZFL, log10 of IC50, read-out: LogIC50 (converted)): 0.985 µM
IC50 ([8]; AB - ZFL, read-out: IC50): 0.985 µM
IC50 ([8]; ZFL, 48 h exposure, nominal, log10, read-out: logIC50 (log10 IC50;nom) AB (converted)): 0.977 µM
IC50 ([8]; ZFL, 48 h exposure, nominal, read-out: IC50;nom AB): 0.985 µM
IC50 ([9]; CFDA - ZF4, log10 of IC50, read-out: LogIC50 (converted)): 49.5 µM
IC50 ([9]; CFDA - ZF4, read-out: IC50): 49.5 µM
IC50 ([9]; ZF4, 48 h exposure, nominal, log10, read-out: logIC50 (log10 IC50;nom) CFDA (converted)): 49 µM
IC50 ([9]; ZF4, 48 h exposure, nominal, read-out: IC50;nom CFDA): 49.5 µM
IC50 ([10]; CFDA - ZFL, log10 of IC50, read-out: LogIC50 (converted)): 21.4 µM
IC50 ([10]; CFDA - ZFL, read-out: IC50): 21.4 µM
IC50 ([10]; ZFL, 48 h exposure, nominal, log10, read-out: logIC50 (log10 IC50;nom) CFDA (converted)): 21.4 µM
IC50 ([10]; ZFL, 48 h exposure, nominal, read-out: IC50;nom CFDA): 21.4 µM
IC50 ([11]; NR-abs - ZF4, log10 of IC50, read-out: LogIC50 (converted)): 1.55 µM
IC50 ([11]; NR-abs - ZF4, read-out: IC50): 1.55 µM
IC50 ([11]; ZF4, 48 h exposure, nominal, log10, read-out: logIC50 (log10 IC50;nom) NRa (converted)): 1.55 µM
IC50 ([11]; ZF4, 48 h exposure, nominal, read-out: IC50;nom NRa): 1.55 µM
IC50 ([11]; ZF4 cell line, NRa endpoint, nominal, read-out: IC50;nom): 0.46 µg/mL
IC50 ([12]; NR-abs - ZFL, log10 of IC50, read-out: LogIC50 (converted)): 0.532 µM
IC50 ([12]; NR-abs - ZFL, read-out: IC50): 0.532 µM
IC50 ([12]; ZFL, 48 h exposure, nominal, log10, read-out: logIC50 (log10 IC50;nom) NRa (converted)): 0.537 µM
IC50 ([12]; ZFL, 48 h exposure, nominal, read-out: IC50;nom NRa): 0.532 µM
IC50 ([13]; NR-fluo - ZF4, log10 of IC50, read-out: LogIC50 (converted)): 10.4 µM
IC50 ([13]; NR-fluo - ZF4, read-out: IC50): 10.4 µM
IC50 ([13]; ZF4, 48 h exposure, nominal, log10, read-out: logIC50 (log10 IC50;nom) NRf (converted)): 10.5 µM
IC50 ([13]; ZF4, 48 h exposure, nominal, read-out: IC50;nom NRf): 10.4 µM
IC50 ([14]; NR-fluo - ZFL, log10 of IC50, read-out: LogIC50 (converted)): 0.584 µM
IC50 ([14]; NR-fluo - ZFL, read-out: IC50): 0.584 µM
IC50 ([14]; ZFL, 48 h exposure, nominal, log10, read-out: logIC50 (log10 IC50;nom) NRf (converted)): 0.589 µM
IC50 ([14]; ZFL, 48 h exposure, nominal, read-out: IC50;nom NRf): 0.584 µM
difference in toxicity (EC50;nom) between 48 hpf and 144 hpf (zebrafish embryos [15]; 48 hpf time point less sensitive than 144 hpf): approximately the same
log EC50;nom (mFET) (zebrafish embryos [15]; 48 hpf, nominal, log10, listed as Fen): -7.115 M
EC50 (zebrafish embryos [15]; 48 hpf, nominal, log10, read-out: log EC50;nom (mFET) (converted)): 0.0776 µM
EC50 (zebrafish embryos [15]; 48 hpf, nominal, read-out: EC50;nom (embryo)): 0.02 µg/mL
EC50 (zebrafish embryos [15]; read-out: EC50 48hpf): 0.0768 µM
EC50 (zebrafish embryos [15]; read-out: EC50;nom (mFET)): 0.0768 µM
IC50 (ZF4 and ZFL cell lines; Danio rerio, log10, read-out: Mean log IC50nom (converted)): 2.4 µM
Mean log IC50nom (ZF4 and ZFL cell lines; log10, listed as Fen): -5.623 M
potency ratio IC50;nom/EC50;nom (median) ([16]; median over cytotoxicity endpoints, nominal, 48 h cells / 48 hpf mFET): 33.3
difference in sensitivity between embryo (EC50;nom) and cells (IC50;nom) ([16]; nominal concentrations, higher potency in the mFET): two to three log-scales more sensitive in the mFET
EC50 (zebrafish embryos [17]; 144 hpf, converted): 0.0802 µM
logEC50 144 hpf (zebrafish embryos [17]; log10): -7.0959 M
AC50 [18]: 0.9 µM
BCF [19]: 1.18E+03
Physiological charge [19]: 0
Water Solubility [19]: insoluble
logKoa [19]: 9.49
logKow [19]: 3.21
pKa (Strongest Acidic) [19]: 9.59
pKa (Strongest Basic) [19]: 4.06
w_solubility (water solubility) [19]: 26.7 µM
